{"source": "patent US9035021B2", "about": "“Somatostatin analogues” (Novartis AG, priority 2001, dated 2015)", "key": {"carotid artery neointima": {"test_system": "carotid artery neointima", "assay": "Angioplasty, rat model of balloon catheter injury", "assay_type": "in vivo", "conditions": "10 μg/kg/h continuous infusion, 14 days after balloon injury", "procedure": "Studies on angioplasty are done in the rat model of balloon catheter injury. Balloon catheterization is performed on day 0, essentially as described by Powell et al. (1989). Under Isofluorane anaesthesia, a Fogarty 2F catheter is introduced into the left common carotid artery to obtain a uniform de-endothelialization. The catheter is then removed, a ligature placed around the external carotid to prevent bleeding and the animals allowed to recover. 2 groups of 12 RoRo rats (400 g, approximately 24 weeks old) are used for the study: one control group and one group receiving Compound A and the rats are fully randomized. Compound A is administered by continuous infusion using minipumps at a rate of 10 μg/kg/h starting 2 days before balloon injury […] until the end of the study, 14 days after balloon injury. The rats are then anaesthetized with Isofluorane and perfused with 0.1 M phosphate buffered saline solution (PBS, pH 7.4) and then for 15 min. with 2.5% glutaraldehyde in phosphate buffer (pH 7.4). Carotid arteries are then excised, separated from surrounding tissue and immersed in 0.1 M cacodylate buffer (pH 7.4) containing 7% saccharose and incubated overnight at 4° C. […] The cross-sectional area of the media, neointima and the lumen are evaluated morphometrically by means of an image analysis system (MCID, Toronto, Canada)."}, "GH": {"test_system": "GH", "assay": "Monkey studies, inhibition of GH", "assay_type": "in vivo"}, "heart allograft": {"test_system": "heart allograft", "assay": "Heterotopic mouse heart allotransplantation model", "assay_type": "in vivo"}, "hsst3": {"molecular_target": "T1, hsst3 (Homo sapiens, UniProt P32745)", "T1 construct": "expressed in transfected cells", "T1 sequence (P32745 whole entry)": "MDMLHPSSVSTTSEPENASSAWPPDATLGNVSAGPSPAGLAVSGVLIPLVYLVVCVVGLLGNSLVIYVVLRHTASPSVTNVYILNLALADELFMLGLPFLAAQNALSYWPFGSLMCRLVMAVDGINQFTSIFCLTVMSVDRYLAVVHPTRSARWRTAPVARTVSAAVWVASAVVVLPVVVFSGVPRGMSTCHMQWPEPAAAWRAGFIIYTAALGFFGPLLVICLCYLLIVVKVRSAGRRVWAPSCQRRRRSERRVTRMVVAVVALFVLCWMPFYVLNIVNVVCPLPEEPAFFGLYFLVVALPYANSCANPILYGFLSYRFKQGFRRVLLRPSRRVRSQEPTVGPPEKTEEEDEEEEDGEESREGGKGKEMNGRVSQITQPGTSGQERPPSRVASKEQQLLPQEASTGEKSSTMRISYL", "assay": "Binding assay, membranes from cell lines expressing hsst3, [125I-Tyr11]-SRIF-14 radioligand", "conditions": "competition binding", "procedure": "(§1) The experiments are carried out in triplicate."}, "blood vessel formation": {"test_system": "blood vessel formation", "assay": "Angiogenesis test in nude mice (SiHa and MDA MB-231 cells)", "assay_type": "in vivo", "conditions": "dose e.g. 0.01 to 1000 μg/kg s.c.", "procedure": "Compound A also has an inhibiting effect on angiogenesis, as indicated in standard tests, e.g. in nude mice. Briefly, tumor cells (0.1 to 10×10^6 in 0.1 ml) (SiHa cells and MDA MB-231 cells prepared as disclosed in Angiogenesis, Ed. by R. Steiner, P. B. Weisz and R. Langer, 1992, Switzerland) are inoculated intracutaneously. Usually two midventral sites/mouse are injected which are located distant from the main ventral skin vessels so that the background vessel count is low. Control groups receive 0.1 ml 0.02% trypan blue in PBS. 10 days following injection, anesthetized mice are sacrificed by CO2 inhalation. The skin is mounted onto a plastic ring (40 mm diameter) for evaluation by an inverted microscope (Zeiss IM) at 12.5- and 25-fold magnification. As a measure of angiogenesis, vessels are photographed and those are counted that are directly connected with the tumor. In control animals those vessels are counted that are connected to a defined area around the injection site. This area corresponds to the mean area of the dermal tumors. The latter is determined by use of a caliper according to the equation 3.14×r^2. Compound A is administered s.c. either on the day of tumor inoculation or 3 days later. Control animals are vehicle-treated."}, "kidney allograft": {"test_system": "kidney allograft", "assay": "Chronic allograft rejection, rat kidney allograft model", "assay_type": "in vivo", "conditions": "10 μg/kg/h infusion", "procedure": "Chronic Allograft Rejection\nThe kidney of a male DA (RT1^a) rat is orthotopically transplanted into a male Lewis (RT1^1) recipient. In total 24 animals are transplanted. All animals are treated with cyclosporine A at 7.5 mg/kg/day per os for 14 days starting on the day of transplantation, to prevent acute cellular rejection. Contralateral nephrectomy is not performed. Each experimental group treated with a distinct dose of Compound A or placebo comprises six animals. Starting 14 days after transplantation, the recipient animals are treated up to 112 days by infusion with Compound A or receive placebo. At 14 days after transplantation organ perfusion is measured by MRI. This is repeated at days 53-64 after transplantation and at the end of the experiment. The animals are then autopsied."}, "hsst1": {"molecular_target": "hsst1 (Homo sapiens, UniProt P30872)", "sequence (P30872 whole entry)": "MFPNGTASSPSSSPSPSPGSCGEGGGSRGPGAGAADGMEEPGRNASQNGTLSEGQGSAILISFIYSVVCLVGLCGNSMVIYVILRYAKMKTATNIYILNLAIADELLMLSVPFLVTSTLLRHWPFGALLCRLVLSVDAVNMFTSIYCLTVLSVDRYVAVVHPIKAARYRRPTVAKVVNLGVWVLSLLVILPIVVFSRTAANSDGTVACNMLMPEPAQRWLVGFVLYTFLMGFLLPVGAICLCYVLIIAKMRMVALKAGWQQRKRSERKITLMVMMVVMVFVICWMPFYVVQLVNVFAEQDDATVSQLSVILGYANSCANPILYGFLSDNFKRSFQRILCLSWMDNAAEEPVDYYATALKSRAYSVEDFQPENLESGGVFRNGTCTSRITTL", "assay": "biochemical", "description": "The binding assays may be carried out as disclosed hereunder using membranes from cell lines expressing selectively and stably hsst1, hsst2, hsst3, hsst4 or hsst5, e.g. CHO or COS cells.\nMembranes prepared from hsst selective cell lines, e.g. CHO or COS cells stably expressing hsst1 or hsst2 or hsst3 or hsst4 or hsst5 are incubated in triplicate in a total volume of 300 μl at 22° C. for 30 min with increasing concentrations of [^125I-Tyr^11]-SRIF-14 in 10 mmol/l Hepes buffer (pH 7.6) containing 0.5% BSA. The incubation is terminated by rapid filtration and the filters are counted in a counter. Specific binding is total binding minus non-specific binding in the presence of 1 μmol/l somatostatin-14. The experiments are carried out in triplicate. The affinity constant (KD) and number of binding sites are calculated using appropriate statistics and graphical programs."}, "insulin secretion": {"test_system": "insulin secretion", "assay": "Similar assay for measuring the effect on insulin", "design": "species or system rats", "conditions": "rat, in vivo"}, "[1]": {"conditions": "diabetic monkeys"}, "carotid artery grafts": {"test_system": "carotid artery grafts", "assay": "Carotid artery loop transplantation model", "assay_type": "in vivo, mice", "conditions": "50 μg/kg/h s.c. mini-pump, grafts harvested at 30 days, compared with non-treated animals", "procedure": "Compound A has also been tested in a carotid artery loop transplantation model using B10.A (2R) (H-2h^2) mice as donor and B10.BR(H-2^k) mice as recipient. In brief, the donor carotid artery is transplanted paratopically as a loop into the recipient's carotid artery by an end-to-side anastomosis. A mini-pump is placed s.c. immediately after transplantation that delivers Compound A at a rate of 50 μg/kg/h. Carotid artery grafts are harvested at 30 days after transplantation to analyse vascular remodeling e.g. by morphometric analysis of Verhoeff elastin stained paraffin sections using a computer-assisted system."}, "IGF-1 plasma levels": {"test_system": "IGF-1 plasma levels", "assay": "IGF-1 plasma levels in vivo in male rats", "procedure": "Furthermore, Compound A inhibits IGF-1 plasma levels in vivo as indicated in standard tests using male rats. Briefly, Compound A is administered by osmotic pump implanted s.c. to male rats of a Lewis strain. Blood samples are collected from the retrobulbar plexus using a short anesthesia with e.g. isoflurane."}, "hsst5": {"molecular_target": "T2, hsst5 (Homo sapiens, UniProt P35346)", "T2 construct": "expressed in transfected cells", "T2 sequence (P35346 whole entry)": "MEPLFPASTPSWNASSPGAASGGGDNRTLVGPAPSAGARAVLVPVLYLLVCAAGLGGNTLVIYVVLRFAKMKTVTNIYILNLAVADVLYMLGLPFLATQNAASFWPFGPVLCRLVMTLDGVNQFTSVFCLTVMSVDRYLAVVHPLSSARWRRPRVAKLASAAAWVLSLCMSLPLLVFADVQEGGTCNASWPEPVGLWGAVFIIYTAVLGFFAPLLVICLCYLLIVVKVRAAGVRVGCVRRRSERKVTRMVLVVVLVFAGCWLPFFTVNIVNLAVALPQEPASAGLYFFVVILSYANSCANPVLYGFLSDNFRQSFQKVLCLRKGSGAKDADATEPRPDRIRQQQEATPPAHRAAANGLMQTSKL", "assay": "Binding assay, membranes from cell lines expressing hsst5, [125I-Tyr11]-SRIF-14 radioligand", "conditions": "competition binding", "procedure": "as §1"}, "hsst2": {"molecular_target": "T3, hsst2 (Homo sapiens, UniProt P30874)", "T3 construct": "expressed in transfected cells", "T3 sequence (P30874 whole entry)": "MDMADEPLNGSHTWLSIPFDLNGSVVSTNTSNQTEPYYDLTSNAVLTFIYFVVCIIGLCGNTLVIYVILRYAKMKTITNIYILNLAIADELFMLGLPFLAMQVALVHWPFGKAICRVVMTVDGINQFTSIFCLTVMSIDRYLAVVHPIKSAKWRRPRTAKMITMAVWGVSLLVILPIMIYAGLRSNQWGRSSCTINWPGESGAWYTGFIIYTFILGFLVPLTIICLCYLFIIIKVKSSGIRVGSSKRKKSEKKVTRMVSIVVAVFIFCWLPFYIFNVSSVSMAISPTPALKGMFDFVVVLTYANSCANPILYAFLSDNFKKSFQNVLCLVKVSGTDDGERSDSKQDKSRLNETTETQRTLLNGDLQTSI", "assay": "Binding assay, membranes from cell lines expressing hsst2, [125I-Tyr11]-SRIF-14 radioligand", "conditions": "competition binding", "procedure": "as §1"}, "[2]": {"molecular_target": "growth hormone secretagogue receptors (Homo sapiens, UniProt Q92847)", "sequence (Q92847 whole entry)": "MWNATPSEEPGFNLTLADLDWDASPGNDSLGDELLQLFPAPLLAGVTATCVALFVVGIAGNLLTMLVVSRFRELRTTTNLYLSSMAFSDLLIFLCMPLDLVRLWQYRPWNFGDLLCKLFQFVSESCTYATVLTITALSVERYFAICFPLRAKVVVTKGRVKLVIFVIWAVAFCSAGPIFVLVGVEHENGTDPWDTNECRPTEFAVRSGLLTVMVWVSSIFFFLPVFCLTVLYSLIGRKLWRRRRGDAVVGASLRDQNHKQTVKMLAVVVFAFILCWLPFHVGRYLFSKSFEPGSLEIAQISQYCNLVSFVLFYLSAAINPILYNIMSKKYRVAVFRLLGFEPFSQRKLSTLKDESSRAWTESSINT", "source_text": "Such receptors are disclosed by G. Muccioli et al., J. Endocrinol. 1998, 157, 99-106, by H. Ong et al., in Endocrinology 1998, 139, 432-435 and by R. G. Smith et al., Norm. Res., 1999, 3), 1-8. The binding assay to these receptors may be carried out as disclosed in J. Endocrinol. Invest. 24: RC1-RC3, 2001."}, "Plasma half-life": {"assay": "Plasma half-life", "assay_type": "in vivo", "conditions": "read-out: Elimination half-life", "procedure": "Compound A has a beneficial plasma half-life. It has an elimination half-life between 15 and 30 hours."}, "hsst4": {"molecular_target": "T4, hsst4 (Homo sapiens, UniProt P31391)", "T4 construct": "expressed in transfected cells", "T4 sequence (P31391 whole entry)": "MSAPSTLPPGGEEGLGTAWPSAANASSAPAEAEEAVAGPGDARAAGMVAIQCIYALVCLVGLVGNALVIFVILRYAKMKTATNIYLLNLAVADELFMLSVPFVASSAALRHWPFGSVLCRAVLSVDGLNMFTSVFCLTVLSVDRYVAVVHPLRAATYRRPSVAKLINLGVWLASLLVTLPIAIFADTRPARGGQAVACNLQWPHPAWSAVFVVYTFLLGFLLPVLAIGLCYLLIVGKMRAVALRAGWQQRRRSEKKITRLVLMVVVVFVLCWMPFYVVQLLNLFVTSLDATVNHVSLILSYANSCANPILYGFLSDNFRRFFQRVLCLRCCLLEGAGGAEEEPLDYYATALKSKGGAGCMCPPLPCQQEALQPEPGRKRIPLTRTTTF", "assay": "Binding assay, membranes from cell lines expressing hsst4, [125I-Tyr11]-SRIF-14 radioligand", "conditions": "competition binding", "procedure": "as §1"}, "growth hormone release": {"test_system": "growth hormone release", "assay": "Inhibition of growth hormone (GH) release in rats", "assay_type": "in vivo", "conditions": "s.c., 6 h, anaesthetized rats", "procedure": "Compound A inhibits the release of growth hormone (GH) in rats. Compound A is administered s.c. to anaesthetized rats. Blood is collected after decapitation 1 h after administration of the compound. The duration of action is estimated on the basis of the inhibition of basal GH secretion 6 h after drug treatment. Hormone levels are measured by RIA 1 h and 6 h after treatment. The ID50-value for the inhibition of the hormone secretion is determined graphically (log-probit) for each experiment and the resulting values are averaged logarithmically."}, "cultured pituitary cells": {"test_system": "cultured pituitary cells", "assay": "Inhibition of GH release in vitro from cultured pituitary cells", "assay_type": "cell-based, rats", "conditions": "rat anterior pituitary cells, three hours, in the presence of 3×10^−10 M growth hormone releasing factor, RIA", "procedure": "For example, anterior pituitary glands from adult male rats are cut into small pieces and dispersed using 0.1% trypsin in 20 mM HEPES buffer. The dispersed cells are cultured for four days in MEM (Gibco) supplemented with 5% fetal calf serum, 5% horse serum, 1 mM NaHCO3, 2.5 nM dexamethasone, […] and 20 U/ml Pen/Strep. On the day of the experiment the attached cells are washed two times with Krebs-Ringer medium buffered with 20 mM HEPES and supplemented with 5 mM glucose and 0.2% BSA. Subsequently the cells are incubated for three hours with Compound A in the presence of 3×10^−10 M growth hormone releasing factor. The amount of growth hormone released into the medium is measured by RIA. Compound A has an IC50 of 0.4 nM in this assay."}}, "note": "*1 amine or outer side, *2 acyl side, *3 side chain or, on linkers, in order; H or OH if unused. Where a SMILES comes first, the peptide text is derived from it. Side-chain parts run from the residue outwards. [ ]: non-standard residue; d: D form. The star is where a group is joined. Ethylenediamine = C(CN[*:2])N[*:1]; Hyp = O=C(O)[C@@H]1C[C@@H](O)CN1; Phg = N[C@H](C(=O)O)c1ccccc1; CO = O=C([*:1])[*:2]; Bn = c1ccc(C*)cc1"}
{"smiles": "NCCCC[C@@H]1NC(=O)[C@@H](Cc2c[nH]c3ccccc23)NC(=O)[C@H](c2ccccc2)NC(=O)[C@@H]2C[C@@H](OC(=O)NCCN)CN2C(=O)[C@H](Cc2ccccc2)NC(=O)[C@H](Cc2ccc(OCc3ccccc3)cc2)NC1=O", "note": "[Compound A, cyclo[{4-(NH2—C2H4—NH—CO—O—)Pro}-Phg-DTrp-Lys-Tyr(4-Bzl)-Phe]] (cyclo([Hyp]([CO-Ethylenediamine])[Phg][dW]KY(Bn)F))", "values": [{"measurement": "Neointimal thickening", "setting": "carotid artery neointima", "value": "inhibits neointimal thickening significantly"}, {"measurement": "Inhibition of GH", "setting": "GH", "value": "potent and efficacious inhibition of GH"}, {"measurement": "Vascular remodelling and graft infiltration", "setting": "heart allograft", "value": "beneficial effects on vascular remodelling as well as in graft infiltration"}, {"measurement": "IC50", "setting": "hsst3", "value": 1.5, "unit": "nM"}, {"measurement": "Blood vessel formation", "setting": "blood vessel formation", "value": "inhibits blood vessel formation"}, {"measurement": "Chronic rejection related vascular remodelling and graft infiltration", "setting": "kidney allograft", "value": "reduction in chronic rejection related vascular remodelling and graft infiltration"}, {"measurement": "IGF-1 levels", "setting": "kidney allograft", "value": "marked and persistent drop of IGF-1 levels"}, {"measurement": "Organ perfusion (MRI)", "setting": "kidney allograft", "value": "improved organ perfusion"}, {"measurement": "IC50", "setting": "hsst1", "value": 9.3, "unit": "nM"}, {"measurement": "Effect on insulin secretion", "setting": "insulin secretion", "value": "inhibits insulin secretion"}, {"measurement": "Antidiabetic/insulin-sensitizing effect", "setting": "[1]", "value": "potent antidiabetic/insulin-sensitizing effect"}, {"measurement": "Neointimal formation", "setting": "carotid artery grafts", "value": "inhibits neointimal formation"}, {"measurement": "Inhibition of IGF-1 plasma levels", "setting": "IGF-1 plasma levels; after 14 days of treatment with 10 μg/kg/h, osmotic pump s.c., male Lewis rats", "value": "more than 60%"}, {"measurement": "Lowering of IGF-1 plasma levels on continuous treatment", "setting": "IGF-1 plasma levels; rat recipients of aorta or kidney allografts, continuous infusion 10 μg/kg/h up to 126 days", "value": "significant and persistent lowering of IGF-1 plasma levels"}, {"measurement": "IC50", "setting": "hsst5", "value": 0.16, "unit": "nM"}, {"measurement": "IC50", "setting": "hsst2", "value": 1, "unit": "nM"}, {"measurement": "Displacement of 125I-Tyr-Ala-hexarelin", "setting": "[2]", "value": "displaces ^125I-Tyr-Ala-hexarelin"}, {"measurement": "half-life", "setting": "Plasma half-life", "value": "15 to 30", "unit": "h"}, {"measurement": "IC50", "setting": "hsst4", "value": "> 100", "unit": "nM"}, {"measurement": "Mean basal ID50, inhibition of GH secretion", "setting": "growth hormone release", "value": 5.5, "unit": "µg/kg"}, {"measurement": "IC50", "setting": "cultured pituitary cells", "value": 0.4, "unit": "nM"}]}
